According to US6448204B1, “Herbicidal 2-aryloxy-4-methyl-6-pyrazol-1-yl-pyridines” (BASF Aktiengesellschaft, priority 1999, dated 2002):

How the values were obtained:
Format in all cases: in vivo
Galium aparine (GALAP) [1] = assay: Post-emergence test; conditions: 2-4 weeks after treatment
Protocol: (§1) To evaluate their herbicidal activity, compounds according to the invention are tested using a representative range of plants:
(§2) These acetone solutions are diluted with water and the resulting formulations applied at dosage levels equivalent of about 0.025 to 0.4 kg per hectare of test compound per pot. After spraying the plants are placed on greenhouse benches and are cared for in the usual manner, commensurate with conventional greenhouse practices. From 2 to 4 weeks after treatment, the seedling plants are examined and rated according to the rating system provided above.

Lamium purpureum (LAMPU) [2] = assay: Post-emergence test; conditions: 2-4 weeks after treatment
Protocol: as §1, §2

[3] = tested on: Ambrosia artemisifolia (AMBEL); assay: Post-emergence test; conditions: 2-4 weeks after treatment
Protocol: as §1, §2

Stellaria media (STEME) = assay: Post-emergence test; conditions: 2-4 weeks after treatment
Protocol: as §1, §2

[4] = tested on: Alopecurus myosuroides (ALOMY); assay: Post-emergence test; conditions: 2-4 weeks after treatment
Protocol: as §1, §2

[5] = tested on: Cassia obtusifolia (CASOB); assay: Post-emergence test; conditions: 2-4 weeks after treatment
Protocol: as §1, §2

[6] = tested on: Abutilon theophrasti (ABUTH); assay: Post-emergence test; conditions: 2-4 weeks after treatment
Protocol: as §1, §2

[7] = tested on: Echinochloa crus-galli (ECHCG); assay: Post-emergence test; conditions: 2-4 weeks after treatment
Protocol: as §1, §2

[8] = tested on: Ipomoea hederacea (IPOHE); assay: Post-emergence test; conditions: 2-4 weeks after treatment
Protocol: as §1, §2

[9] = tested on: Lolium multiflorum (LOLMU); assay: Post-emergence test; conditions: 2-4 weeks after treatment
Protocol: as §1, §2

Setaria viridis (SETVI) = assay: Post-emergence test; conditions: 2-4 weeks after treatment
Protocol: as §1, §2

[10] = tested on: Matricaria inodora (MATIN); assay: Post-emergence test; conditions: 2-4 weeks after treatment
Protocol: as §1, §2

[11] = tested on: Digitaria sanguinalis (DIGSA); assay: Post-emergence test; conditions: 2-4 weeks after treatment
Protocol: as §1, §2

Galium aparine (GALAP) [12] = assay: Pre-emergence test; conditions: 3 weeks after treatment
Protocol: (§3) To evaluate their herbicidal activity, compounds according to the invention are tested using a representative range of plants: […] The pre-emergence tests involve spraying a liquid formulation of the compound onto the soil in which the seeds of the plant species mentioned above has recently been sown. The soil used in the tests is a prepared horticultural loam. […] In these tests untreated sown soil are used as controls.

Lamium purpureum (LAMPU) [13] = assay: Pre-emergence test; conditions: 3 weeks after treatment
Protocol: as §3

[14] = tested on: Ambrosia artemisifolia (AMBEL); assay: Pre-emergence test; conditions: 3 weeks after treatment
Protocol: as §3

Cn1nc(C(F)(F)F)cc1Oc1cccc(-n2ccc(C(F)(F)F)n2)n1 [Comparison]
Rating GALAP (post-emergence application) (Galium aparine (GALAP) [1]; 0.025 kg/ha): 4 (4 - Injury)
Rating GALAP (post-emergence application) (Galium aparine (GALAP) [1]; 0.100 kg/ha): 6 (6 - Herbicidal effect)
Rating GALAP (post-emergence application) (Galium aparine (GALAP) [1]; 0.400 kg/ha): 8 (8 - Approaching complete kill)
Rating LAMPU (post-emergence application) (Lamium purpureum (LAMPU) [2]; 0.025 kg/ha): 7 (7 - Good herbicidal effect)
Rating LAMPU (post-emergence application) (Lamium purpureum (LAMPU) [2]; 0.100 kg/ha): 9 (9 - Complete kill)
Rating LAMPU (post-emergence application) (Lamium purpureum (LAMPU) [2]; 0.400 kg/ha): 9 (9 - Complete kill)
Rating AMBEL (post-emergence application) ([3]; 0.025 kg/ha): 2 (2 - Slight effect)
Rating AMBEL (post-emergence application) ([3]; 0.100 kg/ha): 6 (6 - Herbicidal effect)
Rating AMBEL (post-emergence application) ([3]; 0.400 kg/ha): 8 (8 - Approaching complete kill)
Rating STEME (post-emergence application) (Stellaria media (STEME); 0.025 kg/ha): 7 (7 - Good herbicidal effect)
Rating STEME (post-emergence application) (Stellaria media (STEME); 0.100 kg/ha): 9 (9 - Complete kill)
Rating STEME (post-emergence application) (Stellaria media (STEME); 0.400 kg/ha): 9 (9 - Complete kill)
Rating ALOMY (post-emergence application) ([4]; 0.025 kg/ha): 2 (2 - Slight effect)
Rating ALOMY (post-emergence application) ([4]; 0.100 kg/ha): 4 (4 - Injury)
Rating ALOMY (post-emergence application) ([4]; 0.400 kg/ha): 8 (8 - Approaching complete kill)
Rating CASOB (post-emergence application) ([5]; 0.025 kg/ha): 9 (9 - Complete kill)
Rating CASOB (post-emergence application) ([5]; 0.100 kg/ha): 9 (9 - Complete kill)
Rating CASOB (post-emergence application) ([5]; 0.400 kg/ha): 9 (9 - Complete kill)
Rating ABUTH (post-emergence application) ([6]; 0.025 kg/ha): 3 (3 - Moderate effect)
Rating ABUTH (post-emergence application) ([6]; 0.100 kg/ha): 6 (6 - Herbicidal effect)
Rating ABUTH (post-emergence application) ([6]; 0.400 kg/ha): 8 (8 - Approaching complete kill)
Rating ECHCG (post-emergence application) ([7]; 0.025 kg/ha): 4 (4 - Injury)
Rating ECHCG (post-emergence application) ([7]; 0.100 kg/ha): 7 (7 - Good herbicidal effect)
Rating ECHCG (post-emergence application) ([7]; 0.400 kg/ha): 9 (9 - Complete kill)
Rating IPOHE (post-emergence application) ([8]; 0.025 kg/ha): 5 (5 - Definite injury)
Rating IPOHE (post-emergence application) ([8]; 0.100 kg/ha): 9 (9 - Complete kill)
Rating IPOHE (post-emergence application) ([8]; 0.400 kg/ha): 9 (9 - Complete kill)
Rating LOLMU (post-emergence application) ([9]; 0.025 kg/ha): 4 (4 - Injury)
Rating LOLMU (post-emergence application) ([9]; 0.100 kg/ha): 7 (7 - Good herbicidal effect)
Rating LOLMU (post-emergence application) ([9]; 0.400 kg/ha): 9 (9 - Complete kill)
Rating SETVI (post-emergence application) (Setaria viridis (SETVI); 0.025 kg/ha): 3 (3 - Moderate effect)
Rating SETVI (post-emergence application) (Setaria viridis (SETVI); 0.100 kg/ha): 6 (6 - Herbicidal effect)
Rating SETVI (post-emergence application) (Setaria viridis (SETVI); 0.400 kg/ha): 8 (8 - Approaching complete kill)
Rating MATIN (post-emergence application) ([10]; 0.025 kg/ha): 4 (4 - Injury)
Rating MATIN (post-emergence application) ([10]; 0.100 kg/ha): 6 (6 - Herbicidal effect)
Rating MATIN (post-emergence application) ([10]; 0.400 kg/ha): 8 (8 - Approaching complete kill)
Rating DIGSA (post-emergence application) ([11]; 0.025 kg/ha): 3 (3 - Moderate effect)
Rating DIGSA (post-emergence application) ([11]; 0.100 kg/ha): 6 (6 - Herbicidal effect)
Rating DIGSA (post-emergence application) ([11]; 0.400 kg/ha): 8 (8 - Approaching complete kill)
Assessment rating GALAP (pre-emergence application) (Galium aparine (GALAP) [12]; 0.013 kg/ha): 0 (0 - No effect)
Assessment rating GALAP (pre-emergence application) (Galium aparine (GALAP) [12]; 0.025 kg/ha): 1 (1 - Trace effect)
Assessment rating GALAP (pre-emergence application) (Galium aparine (GALAP) [12]; 0.100 kg/ha): 2 (2 - Slight effect)
Assessment rating GALAP (pre-emergence application) (Galium aparine (GALAP) [12]; 0.400 kg/ha): 8 (8 - Approaching complete kill)
Assessment rating LAMPU (pre-emergence application) (Lamium purpureum (LAMPU) [13]; 0.013 kg/ha): 1 (1 - Trace effect)
Assessment rating LAMPU (pre-emergence application) (Lamium purpureum (LAMPU) [13]; 0.025 kg/ha): 6 (6 - Herbicidal effect)
Assessment rating LAMPU (pre-emergence application) (Lamium purpureum (LAMPU) [13]; 0.100 kg/ha): 8 (8 - Approaching complete kill)
Assessment rating LAMPU (pre-emergence application) (Lamium purpureum (LAMPU) [13]; 0.400 kg/ha): 8 (8 - Approaching complete kill)
Assessment rating AMBEL (pre-emergence application) ([14]; 0.013 kg/ha): 0 (0 - No effect)
Assessment rating AMBEL (pre-emergence application) ([14]; 0.025 kg/ha): 4 (4 - Injury)
Assessment rating AMBEL (pre-emergence application) ([14]; 0.100 kg/ha): 6 (6 - Herbicidal effect)
Assessment rating AMBEL (pre-emergence application) ([14]; 0.400 kg/ha): 8 (8 - Approaching complete kill)
